Measured values reported in patent publication US20240164369A1, “MESENCHYMAL STEM CELLS FOR USE IN INCREASING EX-VIVO ORGAN LIFE” (Amniotics AB, priority 2021, published 2024).

Tests used:
[1] = system: human PBMCs activated with aCD3/aCD28; assay: cytokine analysis in co-culture supernatant after 24 hours (Luminex); assay type: cell-based; details: media 3
Method: 100 μl PBMCs were added per well. […] See also FIG. 23. Supernatant (24 hours incubation) was analysed for cytokines using the 12-[…]-12 Luminex kit. All reagents, standard and samples were prepared at room temperature and according to manufacturer's instruction. Briefly, 50 μl of standard or sample was added to wells. Microparticles were added to samples and standard and samples were incubated for 2 hours at room temperature on a horizontal orbital shaker (800 rpm). Plate was washed 3× in washing buffer using a magnetic plate. Biotin-antibody was added and incubated dark for 1 hour at room temperature on a horizontal orbital shaker (800 rpm). Plate was washed 3× in washing buffer using a magnetic plate. Streptavidin-PE was added to each well and incubated dark at room temperature on a horizontal orbital shaker (800 rpm) for 30 minutes. Plate was washed 3× in washing buffer using a magnetic plate. Microparticles were resuspended in 100 μl washing buffer, incubated for 2 minutes on a horizontal orbital shaker (800 rpm). Samples were analysed on a Bio-Rad Luminex analyzer.

[2] = system: granulocytes and macrophages among human PBMCs activated with aCD3/aCD28; assay: PBMC:MSC co-culture, macrophage composition and CFSE proliferation after 72 hours; assay type: cell-based
Method: (§1) Following activation, cells were analysed for effects on cellular composition after 24 hours and for effects on cellular composition and cell proliferation using CFSE after 72 hours. In addition, supernatants collected after 24 hours of activation were analysed for cytokine levels using Luminex.
(§2) Peripheral Blood Mononuclear Cells (PBMCs) were isolated from leucocyte concentrate from three different donors (acquired from Blodcentralen, Lunds Universitetssjukhus, Lund, Sweden) through gradient centrifugation at 400×g for 40 minutes using Ficoll. Red blood cells (RBCs) were lysed using BD Pharmlyse buffer 10× diluted in milliQ water for 3 minutes at room temperature (RT). Cells were washed and the isolated PBMCs were pooled. Cell concentration was determined using a Scepter cell counter (Millipore Merck, MA. USA). Cells were diluted to 1×10^7 cells/ml in PBS. Pooled PBMCs were split into 2 different tubes. Cells in tube 1 was stained with CFSE at 5 μM for 5 minutes (dark, RT). CFSEstained cells were washed with an equal volume of FBS to stop the reaction and washed again with PBS. Cells in tube two was left in PBS.
When plating controls, cells were spun down and diluted in M3 or M4 at 4*10^6 cells/ml, with a total amount of cells at 4*10^5 cells/well. 100 μl PBMCs were added per well. […] Medium was added to unstimulated control wells (700 μl/well). Cells were incubated for 24 or 72 hours at 37° ° C., 5% CO2. See also FIG. 23.
After 72 hours of incubation, CFSE stained cells were stained with CD4, CD8, CD80, CD206 and CD163 in staining buffer. Briefly, cells were transferred to V bottom plates, centrifuged at 360×g for 2 min. Cells were washed in PBS, centrifuged at 360×g for 2 min at 4° C. Supernatant was flicked off and surface markers were added. Cells were incubated at +4° C. for 20 minutes. After incubation, cells were washed 1× in PBS, centrifuged at 360×g for 2 min at 4° ° C. Cells were resuspended in PBS and acquired using the Attune Nxt flow cytometer. Compensation was performed using beads • AbC Total Compensation capture beads and negative beads for surface markers. For CFSE compensation, newly CFSE stained cells were used. Since compensation was done using both beads and cells, FSC and SSC were changed and adjusted to beads or cells. Lasers were not changed after compensation. 2.3.4 Cytokine Analysis after 24 Hours of Activation (Luminex)
Graphs were performed using Prism 8 for Mac OS X (GraphPad Software, San Diego, CA, USA). Results are presented as mean values±SEM, if not otherwise stated. Dot plots were acquired from analysis using FlowJo v10.6.1 for Mac (BD, New Jersey, USA).

[3] = system: T cells among human PBMCs activated with aCD3/aCD28; assay: PBMC:MSC co-culture, T cell activation status after 24 hours (FACS)
Method: as §1
(§3) Peripheral Blood Mononuclear Cells (PBMCs) were isolated from leucocyte concentrate from three different donors (acquired from Blodcentralen, Lunds Universitetssjukhus, Lund, Sweden) through gradient centrifugation at 400×g for 40 minutes using Ficoll. Red blood cells (RBCs) were lysed using BD Pharmlyse buffer 10× diluted in milliQ water for 3 minutes at room temperature (RT). Cells were washed and the isolated PBMCs were pooled. Cell concentration was determined using a Scepter cell counter (Millipore Merck, MA. USA). Cells were diluted to 1×10^7 cells/ml in PBS. Pooled PBMCs were split into 2 different tubes. Cells in tube 1 was stained with CFSE at 5 μM for 5 minutes (dark, RT). CFSEstained cells were washed with an equal volume of FBS to stop the reaction and washed again with PBS. Cells in tube two was left in PBS. […]
(§4) Following 24 hours of incubation, cells in FACS/Luminex plates were stained with antibodies detecting CD73, CD4, CD8, CD80, CD206, CD163 and PD-1 in staining buffer (PBS supplemented with 1% BSA). […] 150 μl was analysed from each sample.

[4] = system: granulocytes and macrophages among human PBMCs activated with aCD3/aCD28; assay: PBMC:MSC co-culture, macrophage activation status after 24 hours (FACS); assay type: cell-based; details: Prednisolone 125 nM
Method: as §1, §3, §4

[5] = system: T cells among human PBMCs activated with aCD3/aCD28; assay: PBMC:MSC co-culture, T cell composition and CFSE proliferation after 72 hours
Method: as §1, §2
When plating controls, cells were spun down and diluted in M3 or M4 at 4*10^6 cells/ml, with a total amount of cells at 4*10^5 cells/well. 100 μl PBMCs were added per well. […] Medium was added to unstimulated control wells (700 μl/well). […]

## C[C@]12C=CC(=O)C=C1CC[C@@H]1[C@@H]2[C@@H](O)C[C@@]2(C)[C@H]1CC[C@]2(O)C(=O)CO [Prednisolone]
[1]
  HGF level in supernatant: inhibits
  IL-6 level in supernatant: inhibits
  IL-12/IL-23 p40 level in supernatant: inhibits
  TNF-a level in supernatant: inhibits
  the other analysed cytokines, levels in supernatant: No inhibitory effect
[2]
  M1 expression levels: no effect
  M1 proliferation (CFSE): No effect
  M2 expression levels: no effect
  M2 proliferation (CFSE): No effect
[3]; 24 hours of incubation, vs control
  composition of T helper cells (% CD4+ lymphocytes or MFI of CD4+ lymphocytes): higher levels
[3]; 24 hours, CsA 10 μg/ml, Prednisolone 125 nM
  inhibition of T cell activation: only slightly inhibits
[4]
  macrophage cell composition: did not have an effect
[5]
  effect on cytotoxic T cells (%): no effect
[5]; 72 hours of incubation
  effect on T helper cells (%): no effect
